Our source for the Ki values is patent US9469615B2, “Quinoxalines and AZA-quinoxalines as CRTH2 receptor modulators” (Merck Sharp & Dohme Corp., priority 2010, dated 2016).

pKi: −log10 of the molar value.

The experiment concerns the target T1, hCRTH2 (Homo sapiens, UniProt Q9Y5Y4).
T1 construct: expressed in transfected cells; host or cells: HEK (human embryonic kidney) cells expressing hCRTH2; membrane preparation
T1 sequence (Q9Y5Y4 1-395): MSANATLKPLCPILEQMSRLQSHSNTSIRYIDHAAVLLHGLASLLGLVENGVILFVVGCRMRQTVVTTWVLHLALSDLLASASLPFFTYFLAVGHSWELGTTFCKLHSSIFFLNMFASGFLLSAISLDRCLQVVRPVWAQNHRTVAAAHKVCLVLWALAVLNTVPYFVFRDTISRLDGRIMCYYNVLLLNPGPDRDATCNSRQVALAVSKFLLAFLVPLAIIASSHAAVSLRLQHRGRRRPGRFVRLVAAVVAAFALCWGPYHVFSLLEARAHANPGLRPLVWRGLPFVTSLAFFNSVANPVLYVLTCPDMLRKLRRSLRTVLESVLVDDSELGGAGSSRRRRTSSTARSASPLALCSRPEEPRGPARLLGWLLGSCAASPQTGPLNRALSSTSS
The experiment can be described thus: Radioligand binding assay ([3H]PGD2 competition, HEK-hCRTH2 membranes). Particulars: [3H]PGD2 binding. Summed up: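 Competition against 3.0 nM [3H]PGD2 was run for 60 min at room temperature in pH 7.4 Tris-HCl buffer with EDTA, 2 mM MnCl2 and 1% DMSO, using 8-20 μg HEK-hCRTH2 membrane protein. 10 μM PGD2 set non-specific binding; filter-bound counts were read by scintillation.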

Broadly, the pKi is the negative decadic logarithm of the Ki, by convention in mol/L. Low values mean a large Ki, high ones a small Ki. In turn, `C[C@@H](NC(=O)c1ccc2nc(-c3ccccc3)c(CCCCC(=O)O)nc2c1)c1ccc(Cl)cc1` [15AX, 5-(7-{[(1R)-1-(4-chlorophenyl)ethyl]carbamoyl}-3-phenyl-quinoxalin-2-yl)pentanoic acid] gave a negative logarithm of the Ki (pKi) (rated A-E (Table A)) of 7.70 to 8.68 and a pKi (values in text) of 8.52. As for `Cc1ccc([C@@H](C)NC(=O)c2ccc3nc(-c4ccccc4)c(CCCCC(=O)O)nc3c2)cc1` [15AY, 5-(7-{[(1R)-1-(4-methylphenyl)ethyl]carbamoyl}-3-phenyl-quinoxalin-2-yl)pentanoic acid], the negative-log Ki (pKi) (rated A-E (Table A)) was 7.70 to 8.68. The same measure, in the same setting: in the case of `CCc1ccc(CNC(=O)c2ccc3nc(-c4ccccc4)c(CCCCC(=O)O)nc3c2)cc1` [15AZ, 5-{7-[(4-ethylbenzyl)carbamoyl]-3-phenylquinoxalin-2-yl}pentanoic acid] it was 7.70 to 8.68. On to `O=C(O)CCCCc1nc2cc(C(=O)N3CCC(c4ccccc4)CC3)ccc2nc1-c1ccccc1` [15Ai, 5-{3-phenyl-7-[(4-phenylpiperidin-1-yl)carbonyl]quinoxalin-2-yl}pentanoic acid], for which the pKi reads like this: (rated A-E (Table A)) 8.70 to 10.00; (values in text) 8.72. For `CN(Cc1ccccc1)C(=O)c1ccc2nc(-c3ccccc3)c(CCCCC(=O)O)nc2c1` [15Ao, 5-{7-[benzyl(methyl)carbamoyl]-3-phenylquinoxalin-2-yl}pentanoic acid], in that order: 8.70 to 10.00 and 9.00. Take `C[C@H](NC(=O)c1ccc2nc(-c3ccccc3)c(CCCCC(=O)O)nc2c1)c1ccccc1` [15B, 5-(3-phenyl-7-{[(1S)-1-phenylethyl]carbamoyl}quinoxalin-2-yl) pentanoic acid]: the pKi (rated A-E (Table A)) is 7.70 to 8.68. `COc1ccc(CNC(=O)c2ccc3nc(-c4ccccc4)c(CCCCC(=O)O)nc3c2)cc1` [15BA, 5-{7-[(4-methoxybenzyl)carbamoyl]-3-phenylquinoxalin-2-yl}pentanoic acid] gave a pKi (rated A-E (Table A)) of 8.70 to 10.00. Where the note is “rated A-E (Table A)”, `N#Cc1ccc(CNC(=O)c2ccc3nc(-c4ccccc4)c(CCCCC(=O)O)nc3c2)cc1` [15BB, 5-{7-[(4-cyanobenzyl)carbamoyl]-3-phenylquinoxalin-2-yl}pentanoic acid] gave a pKi of 7.70 to 8.68. `Cc1ccc([C@H](C)NC(=O)c2ccc3nc(-c4ccccc4)c(CCCCC(=O)O)nc3c2)cc1` [15BC, 5-(7-{[(1S)-1-(4-methylphenyl)ethyl]carbamoyl}-3-phenylquinoxalin-2-yl)pentanoic acid] showed a pKi (rated A-E (Table A)) of 7.70 to 8.68. In turn, `CC(NC(=O)c1ccc2nc(-c3ccccc3)c(CCCCC(=O)O)nc2c1)c1ccc(OC(F)(F)F)cc1` (centres unmarked) [15BD, 5-[3-phenyl-7-({1-[4-(trifluoromethoxy)phenyl]ethyl}carbamoyl)quinoxalin-2-yl] pentanoic acid] gave a pKi (rated A-E (Table A)) of 7.70 to 8.68.

`O=C(O)CCCCc1nc2cc(C(=O)N3CCCC3)ccc2nc1-c1ccccc1` [15BE, 5-[3-phenyl-7-(pyrrolidin-1-ylcarbonyl)quinoxalin-2-yl]pentanoic aicd] gave a pKi (rated A-E (Table A)) of 7.70 to 8.68. On the same count and under the same terms, the result for `O=C(O)CCCCc1nc2cc(C(=O)N3CCCCC3)ccc2nc1-c1ccccc1` [15BF, 5-[3-phenyl-7-(piperidin-1-ylcarbonyl)quinoxalin-2-yl] pentanoic acid] reads 7.70 to 8.68; that for `CNC(=O)c1ccc2nc(-c3ccccc3)c(CCCCC(=O)O)nc2c1` [15BG, 5-[7-(methylcarbamoyl)-3-phenylquinoxalin-2-yl]pentanoic acid], 7.70 to 8.68. In the case of `CC(NC(=O)c1ccc2nc(-c3ccccc3)c(CCCCC(=O)O)nc2c1)c1ccccc1F` (centres unmarked) [15BH, 5-(7-{[1-(2-fluorophenyl)ethyl]carbamoyl}-3-phenylquinoxalin-2-yl)pentanoic acid], the pKi (rated A-E (Table A)) is 7.70 to 8.68.

With `CON(C)C(=O)c1ccc2nc(-c3ccccc3)c(CCCCC(=O)O)nc2c1` [15BJ, 5-{7-[methoxy(methyl)carbamoyl]-3-phenylquinoxalin-2-yl}pentanoic acid], under “rated A-E (Table A)”, the negative logarithm of the Ki (pKi) is 7.70 to 8.68. Same read-out and setting: in the case of `O=C(O)CCCCc1nc2cc(C(=O)NC3Cc4ccccc4C3)ccc2nc1-c1ccccc1` [15BK, 5-[7-(2,3-dihydro-1H-inden-2-ylcarbamoyl)-3-phenylquinoxalin-2-yl]pentanoic acid] it was 8.70 to 10.00.

With `C[C@@H](NC(=O)c1ccc2nc(-c3ccccc3)c(CCCCC(=O)O)nc2c1)c1ccccc1C(F)(F)F` [15BL, 5-[3-phenyl-7-({(1R)-1-[2-(trifluoromethyl)phenyl]ethyl}carbamoyl)quinoxalin-2-yl]pentanoic acid], the negative-log Ki (pKi) was 6.70 to 7.70 (rated A-E (Table A)) and 7.16 (values in text). For `C[C@H](NC(=O)c1ccc2nc(-c3ccccc3)c(CCCCC(=O)O)nc2c1)c1ccc(Cl)cc1` [15BM, 5-(7-{[(1S)-1-(4-chlorophenyl)ethyl]carbamoyl}-3-phenylquinoxalin-2-yl)pentanoic acid], the pKi (rated A-E (Table A)) was 7.70 to 8.68. Same read-out and setting: the result for `O=C(O)CCCCc1nc2cc(C(=O)NCCCN3CCCC3=O)ccc2nc1-c1ccccc1` [15BN, 5-(7-{[3-(2-oxopyrrolidin-1-yl)propyl]carbamoyl}-3-phenylquinoxalin-2-yl)pentanoic acid] reads 7.70 to 8.68; that for `Cc1cn(C2CCN(C(=O)c3ccc4nc(-c5ccccc5)c(CCCCC(=O)O)nc4c3)CC2)nn1` [15BQ, 5-(7-{[4-(4-methyl-1H-1,2-3-triazol-1-yl)piperidin-1-yl]carbonyl}-3-phenylquinoxalin-2-yl) pentanoic acid], 7.70 to 8.68. `Cc1cnnn1C1CCN(C(=O)c2ccc3nc(-c4ccccc4)c(CCCCC(=O)O)nc3c2)CC1` [15BR, 5-(7-{[4-(5-methyl-1H-1,2,3-triazol-1-yl)piperidin-1-yl]carbonyl}-3-phenylquinoxalin-2-yl)pentanoic acid] showed a pKi (rated A-E (Table A)) of 8.70 to 10.00 and a pKi (values in text) of 10.00. Where the note is “rated A-E (Table A)”, `O=C(O)CCCCc1nc2cc(C(=O)N3CCC(c4cnccn4)CC3)ccc2nc1-c1ccccc1` [15BS, 5-{3-phenyl-7-[(4-pyrazin-2-ylpiperidin-1-yl)carbonyl]quinoxalin-2-yl}pentanoic acid] had a pKi of 7.70 to 8.68. As for `O=C(O)CCCCc1nc2cc(C(=O)NCc3cc(Cl)ccn3)ccc2nc1-c1ccccc1` [15BT, 5-(7-{[(4-chloropyridin-2-yl)methyl]carbamoyl}-3-phenylquinoxalin-2-yl)pentanoic acid], for the setting “rated A-E (Table A)”, the pKi was 8.70 to 10.00.

Take `O=C(O)CCCCc1nc2cc(C(=O)NCc3cccc(Cl)n3)ccc2nc1-c1ccccc1` [15BU, 5-(7-{[(6-chloropyridin-2-yl)methyl]carbamoyl}-3-phenylquinoxalin-2-yl)pentanoic acid]: the negative logarithm of the Ki (pKi) (rated A-E (Table A)) is 8.70 to 10.00. The same measure, in the same setting: in the case of `O=C(O)CCCCc1nc2cc(C(=O)N3CCCc4ccccc43)ccc2nc1-c1ccccc1` [15Bi, 5-[7-(3,4-dihydro-quinolin-1(2H)-ylcarbonyl)-3-phenylquinoxalin-2-yl]pentanoic acid] it was 8.70 to 10.00. Still for that read-out and setting: the result for `CN(C(=O)c1ccc2nc(-c3ccccc3)c(CCCCC(=O)O)nc2c1)C1CCOC1` (centres unmarked) [15Bo, 5-{7-[methyl (tetrahydrofuran-3-yl)carbamoyl]-3-phenylquinoxalin-2-yl} pentanoic acid] reads 6.70 to 7.70; that for `O=C(O)CCCCc1nc2cc(C(=O)NCc3ccc(C(F)(F)F)cc3)ccc2nc1-c1ccccc1` [15C, 5-(3-phenyl-7-{[4-(trifluoromethyl)benzyl]carbamoyl}quinoxalin-2-yl)pentanoic acid], 8.70 to 10.00. Still for that read-out and setting: the result for `C[C@@H](NC(=O)c1ccc2nc(-c3ccccc3)c(CCCCC(=O)O)nc2c1)c1ccc(F)cc1` [15D, 5-(7-{[(1R)-1-(4-fluorophenyl)ethyl]carbamoyl}-3-phenyl-quinoxalin-2-yl)pentanoic acid] reads 8.70 to 10.00; that for `C[C@H](NC(=O)c1ccc2nc(-c3ccccc3)c(CCCCC(=O)O)nc2c1)c1ccc(F)cc1` [15E, 5-(7-{[(1S)-1-(4-fluorophenyl)ethyl]carbamoyl}-3-phenylquinoxalin-2-yl)pentanoic acid], 8.70 to 10.00; that for `O=C(O)CCCCc1nc2cc(C(=O)N[C@@H](c3ccccc3)C(F)(F)F)ccc2nc1-c1ccccc1` [15F, 5-(3-phenyl-7-{[(1S)-2,2,2-trifluoro-1-phenylethyl]carbamoyl}quinoxalin-2-yl) pentanoic acid], 7.70 to 8.68. On to `O=C(O)CCCCc1nc2cc(C(=O)N[C@H](c3ccccc3)C(F)(F)F)ccc2nc1-c1ccccc1` [15G, 5-(3-phenyl-7-{[(1R)-2,2,2-trifluoro-1-phenylethyl]carbamoyl}quinoxalin-2-yl) pentanoic acid], for which, under “rated A-E (Table A)”, the pKi was 7.70 to 8.68. Take `O=C(O)CCCCc1nc2cc(C(=O)N3CCC4(CC3)CNC4)ccc2nc1-c1ccccc1` [15H, 5-[7-(2,7-diazaspiro-[3.5]non-7-ylcarbonyl)-3-phenylquinoxalin-2-yl]pentanoic acid]: the negative-log Ki (pKi) is 6.70 to 7.70 (rated A-E (Table A)) and 6.82 (values in text). As to `O=C(O)CCCCc1nc2cc(C(=O)N3CCNC(c4ccccc4)C3)ccc2nc1-c1ccccc1` (centres unmarked) [15J, 5-{3-phenyl-7-[(3-phenylpiperazin-1-yl)carbonyl]quinoxalin-2-yl}pentanoic acid], the pKi (rated A-E (Table A)) is 7.70 to 8.68. Same read-out and setting: in the case of `O=C(O)CCCCc1nc2cc(C(=O)N3CCNC(Cc4ccccc4)C3)ccc2nc1-c1ccccc1` (centres unmarked) [15K, 5-{7-[(3-benzylpiperazin-1-yl)carbonyl]-3-phenyl-quinoxalin-2-yl}pentanoic acid] it was 7.70 to 8.68; in that of `CCN1CCN(C(=O)c2ccc3nc(-c4ccccc4)c(CCCCC(=O)O)nc3c2)CC1` [15L, 5-{7-[(4-ethylpiperazin-1-yl)carbonyl]-3-phenylquinoxalin-2-yl}pentanoic acid], 6.70 to 7.70.
